Experimental data reported in patent publication US12391671B2, “Allosteric EGFR inhibitors and methods of use thereof” (Dana-Farber Cancer Institute, Inc., priority 2019, dated 2025).
Structures can show the parent of a compound that is named as a salt.

Columns and labels:
EGFR L858R/T790M = EGFR L858R/T790M (Homo sapiens (Human), UniProt P00533, L858R/T790M); experiment: HTRF-based EGFR biochemical assay (L858R/T790M); details: 100 μM ATP, enzyme 0.02 nM
Experimental: (§1) Example 25: HTRF-Based EGFR Biochemical Assays
(§2) EGFR biochemical activity measurements were carried out using the homogeneous time-resolved fluorescence (HTRF) assay (Cisbio), inhibitors and DMSO normalizations were first dispensed to empty black low-volume 384-well plates (Corning) with 0300 digital liquid dispenser (HP). All reactions were carried out at room temperature and solutions were added to plates with a Multidrop Combi Reagent Dispenser (ThermoFisher). The reaction mixture (10 μL final volume) contained 1 μM tyrosine kinase peptide-biotin substrate and mutant EGFR in a reaction buffer (50 mM HEPES pH 7.0, 5 mM MgCl2, 1 mM MnCl2, 0.01% BSA, 2 mM TCEP, 0.1 mM NaVO4). Enzyme concentrations were adjusted to accommodate varying kinase activities (L858R 0.1 nM, L858R/T790M 0.02 nM). Enzyme reaction solution (2× concentrations, 5 μL) was added to 384-well plates containing compounds and incubated for 30 mins. Enzyme reactions were initiated with the addition of 5 μL of ATP to a final concentration of 100 μM and reacted for 20 mins. Reactions were quenched with the addition of 10 μL of phospho-tyrosine antibody-Europium(III) cryptate (1-to-180 volume ratio) and Streptavidin-XL665 (46.7 nM) in EDTA-containing detection buffer, then incubated at room temperature for 1 hour, and read with a PHERAstar plate reader (excitation=337 nm, emission=620 nm and 665 nm).

EGFR L858R = EGFR L858R (Homo sapiens (Human), UniProt P00533, L858R); experiment: HTRF-based EGFR biochemical assay (L858R); details: 100 μM ATP, enzyme 0.1 nM
Experimental: as §1, §2

EGFR L858R, sequence (P00533 25-1210 L858R): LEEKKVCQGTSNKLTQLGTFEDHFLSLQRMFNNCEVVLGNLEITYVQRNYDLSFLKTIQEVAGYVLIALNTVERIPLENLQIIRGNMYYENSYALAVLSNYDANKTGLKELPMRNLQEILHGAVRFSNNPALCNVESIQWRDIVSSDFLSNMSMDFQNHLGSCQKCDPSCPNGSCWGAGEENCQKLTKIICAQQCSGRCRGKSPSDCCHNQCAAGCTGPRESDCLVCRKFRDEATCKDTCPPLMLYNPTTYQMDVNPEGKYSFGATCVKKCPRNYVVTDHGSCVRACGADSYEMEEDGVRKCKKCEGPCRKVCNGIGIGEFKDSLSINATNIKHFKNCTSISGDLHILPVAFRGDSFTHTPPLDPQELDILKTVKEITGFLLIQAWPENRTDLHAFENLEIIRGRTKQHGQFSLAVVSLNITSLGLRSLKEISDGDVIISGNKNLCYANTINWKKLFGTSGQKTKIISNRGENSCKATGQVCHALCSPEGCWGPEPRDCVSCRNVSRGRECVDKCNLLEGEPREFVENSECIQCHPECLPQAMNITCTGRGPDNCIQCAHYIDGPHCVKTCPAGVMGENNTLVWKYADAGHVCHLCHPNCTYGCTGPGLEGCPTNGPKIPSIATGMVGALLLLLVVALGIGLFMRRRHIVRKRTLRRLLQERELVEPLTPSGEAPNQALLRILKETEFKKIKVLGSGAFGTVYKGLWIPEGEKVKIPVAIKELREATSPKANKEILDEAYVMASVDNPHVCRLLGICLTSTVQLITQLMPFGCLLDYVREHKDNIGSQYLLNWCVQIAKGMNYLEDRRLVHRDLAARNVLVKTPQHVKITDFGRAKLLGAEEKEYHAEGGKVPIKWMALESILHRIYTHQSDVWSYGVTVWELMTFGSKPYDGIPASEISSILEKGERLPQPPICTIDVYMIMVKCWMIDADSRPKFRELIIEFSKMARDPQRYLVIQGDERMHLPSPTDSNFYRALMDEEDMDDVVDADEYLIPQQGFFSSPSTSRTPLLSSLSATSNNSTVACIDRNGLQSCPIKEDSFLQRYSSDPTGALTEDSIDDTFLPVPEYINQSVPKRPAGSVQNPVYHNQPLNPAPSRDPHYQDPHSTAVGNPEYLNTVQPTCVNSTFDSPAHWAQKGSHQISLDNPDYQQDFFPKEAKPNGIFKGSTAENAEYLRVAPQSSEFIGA
EGFR L858R/T790M, sequence (P00533 25-1210 T790M/L858R): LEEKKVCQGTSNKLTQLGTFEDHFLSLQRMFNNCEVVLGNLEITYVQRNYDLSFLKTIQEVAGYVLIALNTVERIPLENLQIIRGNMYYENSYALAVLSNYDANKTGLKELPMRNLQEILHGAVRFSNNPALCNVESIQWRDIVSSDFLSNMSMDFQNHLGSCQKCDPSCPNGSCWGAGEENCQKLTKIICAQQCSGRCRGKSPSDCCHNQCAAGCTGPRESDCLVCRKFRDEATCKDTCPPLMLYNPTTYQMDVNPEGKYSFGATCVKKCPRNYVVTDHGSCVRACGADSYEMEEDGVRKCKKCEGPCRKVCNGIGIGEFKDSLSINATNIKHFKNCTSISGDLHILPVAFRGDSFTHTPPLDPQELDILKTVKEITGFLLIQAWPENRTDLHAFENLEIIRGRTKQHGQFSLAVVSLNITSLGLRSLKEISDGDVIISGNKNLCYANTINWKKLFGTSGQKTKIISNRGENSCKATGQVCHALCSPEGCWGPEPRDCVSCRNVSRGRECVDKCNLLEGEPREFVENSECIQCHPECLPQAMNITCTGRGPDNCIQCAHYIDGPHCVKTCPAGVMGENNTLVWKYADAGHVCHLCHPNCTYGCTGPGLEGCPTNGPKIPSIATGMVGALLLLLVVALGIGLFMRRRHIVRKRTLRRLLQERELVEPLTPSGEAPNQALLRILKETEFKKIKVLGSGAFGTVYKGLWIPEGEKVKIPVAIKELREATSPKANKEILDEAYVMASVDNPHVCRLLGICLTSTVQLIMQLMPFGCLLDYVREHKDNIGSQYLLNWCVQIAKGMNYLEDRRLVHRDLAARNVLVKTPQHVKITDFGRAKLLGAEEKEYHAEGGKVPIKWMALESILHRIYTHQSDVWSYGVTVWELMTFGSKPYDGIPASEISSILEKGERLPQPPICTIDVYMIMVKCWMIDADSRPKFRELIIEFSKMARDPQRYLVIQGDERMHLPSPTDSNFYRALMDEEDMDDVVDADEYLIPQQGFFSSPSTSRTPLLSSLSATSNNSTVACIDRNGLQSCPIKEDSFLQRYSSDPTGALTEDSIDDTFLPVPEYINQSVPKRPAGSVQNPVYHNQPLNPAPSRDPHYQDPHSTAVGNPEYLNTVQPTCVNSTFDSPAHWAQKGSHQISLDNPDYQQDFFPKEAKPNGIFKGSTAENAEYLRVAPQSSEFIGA

SMILES | IC50 (EGFR L858R/T790M) [nM] | IC50 (EGFR L858R) [nM]
CN1CCC(c2ccc(-c3ccc4c(=O)n(C(c5nc6c(F)cccc6[nH]5)c5cc(F)ccc5O)ccc4c3)cc2)CC1 (centres unmarked) [Compound 102, 2-((4-Fluoro-1H-benzo[d]imidazol-2-yl)(5-fluoro-2-hydroxyphenyl)methyl)-6-(4-(1-methylpiperidin-4-yl)phenyl)isoquinolin-1(2H)-one] | 4 | 6
CN1CCC2(c3ccc(-c4ccc5c(=O)n(C(c6nc7ccccc7[nH]6)c6cc(F)ccc6O)ccc5c4)cc3)CC2C1 (centres unmarked) [Compound 108, 2-[1H-Benzimidazol-2-yl-(5-fluoro-2-hydroxy-phenyl)methyl]-6-[4-(3-methyl-3-azabicyclo[4.1.0]heptan-6-yl)phenyl]isoquinolin-1-one; dihydrochloride] | 2 | 5
CN1CCC(c2ccc(-c3ccc4c(=O)n(C(c5nc6ccccc6[nH]5)c5cc(F)ccc5O)ccc4c3)cc2F)CC1 (centres unmarked) [Compound 109, 2-[1H-Benzimidazol-2-yl-(5-fluoro-2-hydroxy-phenyl)methyl]-6-[3-fluoro-4-(1-methyl-4-piperidyl)phenyl]isoquinolin-1-one; dihydrochloride] | 2 | 4
CN1CCC2(c3ccc(-c4cc(F)c5c(=O)n(C(c6nc7ccccc7[nH]6)c6cc(F)ccc6O)ccc5c4)cc3)CC2C1 (centres unmarked) [Compound 110, 2-[1H-Benzimidazol-2-yl-(5-fluoro-2-hydroxy-phenyl)methyl]-8-fluoro-6-4-(3-methyl-3-azabicyclo[4.1.0]-heptan-6-yl)phenyl]isoquinolin-1-one; dihydrochloride] | 0.6 | 3
CN1CCC(c2ccc(-c3cc(F)c4c(=O)n(C(c5nc6ccccc6[nH]5)c5cc(F)ccc5O)ccc4c3)cc2F)CC1 (centres unmarked) [Compound 111, 2-[1H-Benzimidazol-2-yl-(5-fluoro-2-hydroxy-phenyl)methyl]-8-fluoro-6-[3-fluoro-4-(1-methyl-4-piperidyl)-phenyl]isoquinolin-1-one; dihydrochloride] | 0.6 | 3
[2H]C(c1nc2ccccc2[nH]1)(c1cc(F)ccc1O)n1ccc2cc(-c3ccc(C4CCN(C)CC4)cc3)ccc2c1=O (centres unmarked) [Compound 112, 2-[1H-Benzimidazol-2-yl-deuterio-(5-fluoro-2-hydroxy-phenyl)methyl]-6-[4-(1-methyl-4-piperidyl)phenyl]isoquinolin-1-one] | 2 | 3
[2H]C(c1nc2ccccc2[nH]1)(c1cc(F)ccc1O)n1ccc2cc(-c3ccc(C4CCN(C)CC4)cc3)cc(F)c2c1=O (centres unmarked) [Compound 113, 2-[1H-Benzimidazol-2-yl-deuterio-(5-fluoro-2-hydroxy-phenyl)methyl]-8-fluoro-6-[4-(1-methyl-4-piperidyl)phenyl]isoquinolin-1-one] | 4 | 14
